Assay results: US20070270418A1, “Inhibitors of P38 and Methods of Using the Same” (priority 2003, published 2007)
Read-outs that look alike come from different tables or passages of the source.

What was measured:
[1] = molecular target: T1, p38α (Homo sapiens, UniProt Q16539); assay: p38 MAP Kinase assay, ATF2 phosphorylation (ELISA); assay type: biochemical; conditions: 40 μM ATP
T1 construct: p38 MAP Kinases are recombinant human full-length proteins with an amino-terminal GST fusion; GST (N); purchased Upstate (Charlottesville, Va.); host or cells: E. coli
T1 sequence (Q16539 whole entry, the tested form may be a part): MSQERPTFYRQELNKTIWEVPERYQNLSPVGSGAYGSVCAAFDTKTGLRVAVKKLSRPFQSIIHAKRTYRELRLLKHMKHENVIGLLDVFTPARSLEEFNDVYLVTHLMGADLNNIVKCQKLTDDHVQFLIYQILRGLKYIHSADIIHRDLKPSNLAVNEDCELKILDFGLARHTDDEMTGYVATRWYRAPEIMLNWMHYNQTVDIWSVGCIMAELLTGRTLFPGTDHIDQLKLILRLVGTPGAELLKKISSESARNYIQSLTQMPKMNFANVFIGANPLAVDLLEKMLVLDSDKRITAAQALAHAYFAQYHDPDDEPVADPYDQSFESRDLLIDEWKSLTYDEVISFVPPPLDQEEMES
Procedure, shortened: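 Recombinant full-length GST-tagged human p38α (6 ng) pre-incubated 15 min at room temperature with compound, then reacted 30 min at 37° C with 40 μM ATP and 1.25 μM GST-ATF2 (aa 19-96) in HEPES pH 7.5/MgCl2 buffer. EDTA stop; ATF2 Thr69 phosphorylation measured by anti-phospho-ATF2 ELISA at 450 nm.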

[2] = tested on: TNFα release from THP-1 cells; assay: TNFα release from LPS-stimulated THP-1 cells; assay type: cell-based
From the text: Compounds of the invention are screened for the ability to inhibit TNFα and IL-1β release from THP-1 cells stimulated with lipopolysaccharide (LPS) in vitro. The ability of compounds to inhibit TNFα and IL-1β release in this in vitro assay is correlated with the inhibition of p38 activity and TNFα and IL-1β expression in vivo, and is therefore an indicator of potential in vivo therapeutic activity (Lee J. C. et al, Ann. N.Y. Acad. Sci. 696: 149-170, 1993 and Nature, 372: 739-746, 1994).
THP-1 cells from ATCC (TIB202) are maintained at 37° C., 5% CO2 in RPMI 1640 media (MediaTech, Herndon, Va.) containing 4.5 g/L glucose, supplemented with 10% fetal bovine serum, 1% penicillin/streptomycin and 50 μM β-mercaptoethanol.
Test compounds are initially dissolved in RPMI media with 1% DMSO (v/v). Compounds are then serially diluted in RPMI media for all subsequent dilutions. The assay is performed under sterile conditions. THP-1 cells at a culture density of 6-8×10^5 cells/ml are collected and resuspended in the RPMI media at 10^6 cells/ml. 100 μl of resuspended cells are added to each well, which contain 100 μl of a test compound. Test compounds are prepared at twice the final concentration. Final DMSO concentration is no more than 0.5% (v/v). Cells are preincubated with compound for 30 minutes at 37° C., 5% CO2 prior to stimulation with lipopolysaccharide (LPS) (Sigma L-2880, 4 mg/ml stock in PBS). The final LPS concentration in each well is 10 or 30 μg/ml for TNFα and IL-1β release, respectively. Unstimulated control cell suspensions receive PBS vehicle only. Cell mixtures are incubated for 18 or 48 hours for TNFα and IL-1β release, respectively. 150 μl of supernatants are taken and transferred to a fresh plate and stored at −20° C. until further analysis.

[3] = Homo sapiens, THP-1, 18 h, LPS 10 μg/ml, 18 hours, read-out: TNFα (THP-1) IC50

Structure (SMILES)	IC50 [1]	IC50 [2, 3]	IC50 ([2]; LPS 10 μg/ml, 18 hours, read-out: TNFα (THP-1) IC50)	IC50 ([2]; Homo sapiens, THP-1, 18 h, read-out: TNFα (THP-1) IC50 (nM))
CC(C)(C)OC(=O)N1CCC(Nc2nccc(-c3c(-c4ccc(F)cc4)nc4sccn34)n2)CC1 [CCXXXIII, 4-{4-[6-(4-fluorophenyl)-imidazo[2,1-b]thiazol-5-yl]-pyrimidin-2-ylamino}-piperidine-1-carboxylic acid tert-butyl ester]	2.24 nM	76.9 nM		
CC(C)[C@H](CO)Nc1nccc(-c2c(-c3ccc(F)cc3)nc3sccn23)n1 [CCXXXII]	2.06 nM	11.1 nM		
Oc1ccc(CCNc2nccc(-c3c(-c4ccc(F)cc4)nc4sccn34)n2)cc1 [CCXXXIX]	5.82 nM	21 nM		
CC(C)[C@@H](CO)Nc1nccc(-c2c(-c3ccc(F)cc3)nc3sccn23)n1 [CCXXXI]	1.13 nM	5.67 nM		
CC(C)(C)OC(=O)N1CCC(CNc2nccc(-c3c(-c4ccc(F)cc4)nc4sccn34)n2)CC1 [CCXXXVIII]	87.6 nM	162 nM		
CC(C)(C)OC(=O)N1CCCCC1CNc1nccc(-c2c(-c3ccc(F)cc3)nc3sccn23)n1 (centres unmarked) [CCXXXVII]	107 nM	113 nM		
CC(C)(C)OC(=O)N1CCCC(CNc2nccc(-c3c(-c4ccc(F)cc4)nc4sccn34)n2)C1 (centres unmarked) [CCXXXVI]	81.8 nM	162 nM		
CC[C@H](CO)Nc1nccc(-c2c(-c3ccc(F)cc3)nc3sccn23)n1 [CCXXXV]	2.08 nM	2.95 nM		
CC(C)(CO)CNc1nccc(-c2c(-c3ccc(F)cc3)nc3sccn23)n1 [CCXX]	1.56 nM	2.41 nM		
COc1cccc(-c2nc3sccn3c2-c2ccnc(N[C@H](CO)C(C)C)n2)c1 [CC]	112 nM	93.8 nM		
CC(C)[C@H](CO)Nc1nccc(-c2c(-c3ccc(F)cc3)nc3occn23)n1 [CIII]	7.57 nM	20 nM		
C[C@H](O)[C@H](CO)Nc1nccc(-c2c(-c3ccc(F)cc3)nc3occn23)n1 [CIV]	8.62 nM			6 nM
CCC(CO)(CO)Nc1nccc(-c2c(-c3ccc(F)cc3)nc3occn23)n1 [CIX]	30.5 nM	19.8 nM		
CCOc1nccc(-c2c(-c3ccc(F)cc3)nc3sccn23)n1 [CLI]	122 nM	284 nM		
COc1nccc(-c2c(-c3ccc(F)cc3)nc3sccn23)n1 [CLV]	286 nM	402 nM		
CC(C)C(CO)Nc1nccc(-c2c(-c3ccc(F)cc3)nc3sccn23)n1 (centres unmarked) [CLXXII]	4.67 nM	48.1 nM		
COC(=O)[C@@H](CC(C)C)Nc1nccc(-c2c(-c3ccc(F)cc3)nc3sccn23)n1 [CLXXI]	14.9 nM	3970 nM		

Structure (SMILES)	IC50 [1]	IC50 [2, 3]	IC50 ([2]; LPS 10 μg/ml, 18 hours, read-out: TNFα (THP-1) IC50)	IC50 ([2]; Homo sapiens, THP-1, 18 h, read-out: TNFα (THP-1) IC50 (nM))
OC[C@H](Cc1ccccc1)Nc1nccc(-c2c(-c3ccc(F)cc3)nc3sccn23)n1 [CLXXXI]	176 nM	138 nM		
CCC(CO)(CO)Nc1nccc(-c2c(-c3ccc(F)cc3)nc3sccn23)n1 [CLXXX]	80.8 nM	57.4 nM		
Fc1ccc(-c2nc3sccn3c2-c2ccnc(OCC3CC3)n2)cc1 [CL]	256 nM	218 nM		
CCC[C@@H](CO)Nc1nccc(-c2c(-c3ccc(F)cc3)nc3occn23)n1 [CVIII]	3.11 nM	11.7 nM		
C[C@@H](O)[C@@H](CO)Nc1nccc(-c2c(-c3ccc(F)cc3)nc3occn23)n1 [CVII]	63.8 nM	112 nM		
CCC[C@H](CO)Nc1nccc(-c2c(-c3ccc(F)cc3)nc3occn23)n1 [CVI]	5.2 nM	30.6 nM		
C[C@H](CO)Nc1nccc(-c2c(-c3ccc(F)cc3)nc3occn23)n1 [CV]	3.09 nM	8.67 nM		
CC(CO)Nc1nccc(-c2c(-c3ccc(F)cc3)nc3sccn23)n1 (centres unmarked) [CXCIII]	6.19 nM	8.38 nM		
COc1ccc(CCNc2nccc(-c3c(-c4ccc(F)cc4)nc4occn34)n2)cc1 [CXIII]	7.88 nM	127 nM		
Oc1ccc(CCNc2nccc(-c3c(-c4ccc(F)cc4)nc4occn34)n2)cc1 [CXII]	3.45 nM	13.1 nM		
Fc1ccc(-c2nc3occn3c2-c2ccnc(NCc3nc4ccccc4[nH]3)n2)cc1 [CXIV]	183 nM	913 nM		
CCCC[C@H](CO)Nc1nccc(-c2c(-c3ccc(F)cc3)nc3occn23)n1 [CXI]	11.2 nM	65.9 nM		
Fc1ccc(CNc2nccc(-c3c(-c4ccc(F)cc4)nc4sccn34)n2)cc1 [CXLIV]	54.1 nM	182 nM		
Fc1ccc(-c2nc3sccn3c2-c2ccnc(OCc3ccccc3)n2)cc1 [CXLIX]	152 nM	391 nM		
CC(C)(CO)Nc1nccc(-c2c(-c3ccc(F)cc3)nc3occn23)n1 [CXVIII]	2.91 nM	26.3 nM		
OC1(CNc2nccc(-c3c(-c4ccc(F)cc4)nc4occn34)n2)CCCCC1 [CXVII]	20.6 nM	47 nM		
Fc1ccc(-c2nc3occn3c2-c2ccnc(NCCN3CCCCC3)n2)cc1 [CXVI]	236 nM	376 nM		

Continued, in another order:

IC50 [1]	IC50 [2, 3]	IC50 ([2]; LPS 10 μg/ml, 18 hours, read-out: TNFα (THP-1) IC50)	Structure (SMILES)	IC50 ([2]; Homo sapiens, THP-1, 18 h, read-out: TNFα (THP-1) IC50 (nM))
1.73 nM	41.9 nM		Nc1ccc(CCNc2nccc(-c3c(-c4ccc(F)cc4)nc4occn34)n2)cc1 [CXV]	
27.2 nM	99 nM		OC1(CNc2nccc(-c3c(-c4ccc(F)cc4)nc4occn34)n2)CCCc2ccccc21 (centres unmarked) [CXXIII]	
5.44 nM	22.7 nM		NS(=O)(=O)c1ccc(CCNc2nccc(-c3c(-c4ccc(F)cc4)nc4occn34)n2)cc1 [CXXII]	
59.6 nM	67.7 nM		CC(CN(C)C)Nc1nccc(-c2c(-c3ccc(F)cc3)nc3occn23)n1 (centres unmarked) [CXXIV]	
11.2 nM	26.4 nM		Fc1ccc(CCNc2nccc(-c3c(-c4ccc(F)cc4)nc4occn34)n2)cc1 [CXXI]	
71 nM	1390 nM		NC(=O)[C@H](Cc1ccccc1)Nc1nccc(-c2c(-c3ccc(F)cc3)nc3occn23)n1 [CXXVIII]	
28.5 nM	249 nM		CC(C)(Nc1nccc(-c2c(-c3ccc(F)cc3)nc3occn23)n1)C(O)c1ccccc1 (centres unmarked) [CXXVII]	
29.4 nM	86.1 nM		C[C@@H](Nc1nccc(-c2c(-c3ccc(F)cc3)nc3occn23)n1)C(N)=O [CXXVI]	
258 nM	1360 nM		Fc1ccc(-c2nc3occn3c2-c2ccnc(NCCN3CCN(Cc4ccccc4)CC3)n2)cc1 [CXXV]	
373 nM	> 10000 nM		CS(=O)(=O)c1nccc(-c2c(-c3ccccc3)nc3sccn23)n1 [CXXXII]	
36.5 nM	171 nM		OC(CNc1nccc(-c2c(-c3ccc(F)cc3)nc3occn23)n1)COc1ccccc1 (centres unmarked) [CXX]	
21.8 nM	15 nM		OC1CCCCC1Nc1nccc(-c2c(-c3ccc(F)cc3)nc3occn23)n1 (centres unmarked) [CX]	
0.893 nM	3.19 nM		CC(C)Nc1nccc(-c2c(-c3ccc(F)cc3)nc3occn23)n1 [C]	
361 nM	236 nM		Fc1ccc(-c2nc3occn3c2-c2ccnc(NCCCN3CCOCC3)n2)cc1 [LIII]	
54.5 nM		60.9 nM	OC(CNc1nccc(-c2c(-c3ccc(F)cc3)nc3occn23)n1)c1ccccc1 (centres unmarked) [LII]	
30.2 nM	11.8 nM		OCC1(Nc2nccc(-c3c(-c4ccc(F)cc4)nc4occn34)n2)CCCC1 [LIV]	
1.79 nM	55.4 nM		O[C@H]1CC[C@H](Nc2nccc(-c3c(-c4ccc(F)cc4)nc4occn34)n2)CC1 [LIX]	
8.06 nM	94.4 nM		Fc1ccc(-c2nc3occn3c2-c2ccnc(NCCc3ccncc3)n2)cc1 [LI]	
97.9 nM	1190 nM		O[C@H]1Cc2ccccc2[C@H]1Nc1nccc(-c2c(-c3ccc(F)cc3)nc3occn23)n1 [LVIII]	
8.96 nM	58.5 nM		OC(CNc1nccc(-c2c(-c3ccc(F)cc3)nc3occn23)n1)c1ccccc1 (centres unmarked) [LVII]	
14 nM	96.9 nM		Fc1ccc(-c2nc3occn3c2-c2ccnc(NCCCn3ccnc3)n2)cc1 [LVI]	
23.1 nM	25 nM		OCCCCCCNc1nccc(-c2c(-c3ccc(F)cc3)nc3occn23)n1 [LV]	
38.5 nM	87.4 nM		C[C@H](Nc1nccc(-c2c(-c3ccc(F)cc3)nc3occn23)n1)[C@H](O)c1ccccc1 [LXIII]	
453 nM	258 nM		O=C1OCC[C@H]1Nc1nccc(-c2c(-c3ccc(F)cc3)nc3occn23)n1 [LXII]	
